# In ChEMBL document CHEMBL1201862, “PubChem BioAssay data set” (2004):
# Activity calls are given as the source filed them.
# How the values were obtained:
# [1] = molecular target: T1, Microphthalmia-associated transcription factor (Homo sapiens, UniProt O75030); test: reducers of TRPM1 reporter luminescence, concentration series – cell-based, SK-MEL-5, cherry-picked, set 3, MITF inhibitor project, dose response (AID 493073); format: functional;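 also: SK-MEL-5 melanoma cells with luciferase driven by the MITF target TRPM1 promoter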
# T1 sequence (O75030 whole entry): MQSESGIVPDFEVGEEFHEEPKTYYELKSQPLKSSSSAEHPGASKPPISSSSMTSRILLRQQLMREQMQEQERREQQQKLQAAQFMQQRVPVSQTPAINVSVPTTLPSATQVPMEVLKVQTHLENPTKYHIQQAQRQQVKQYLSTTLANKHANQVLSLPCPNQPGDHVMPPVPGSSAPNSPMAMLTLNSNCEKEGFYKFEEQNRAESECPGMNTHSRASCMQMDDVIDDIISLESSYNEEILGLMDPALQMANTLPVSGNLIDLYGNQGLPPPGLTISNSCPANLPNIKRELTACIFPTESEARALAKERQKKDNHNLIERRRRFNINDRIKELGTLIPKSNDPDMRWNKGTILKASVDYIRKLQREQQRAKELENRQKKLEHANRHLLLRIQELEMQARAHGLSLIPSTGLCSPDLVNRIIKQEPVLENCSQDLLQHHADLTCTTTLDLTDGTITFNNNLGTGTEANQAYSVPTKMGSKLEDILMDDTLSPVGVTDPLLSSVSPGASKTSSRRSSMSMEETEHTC
# Paired box protein Pax-8 = Paired box protein Pax-8 (Homo sapiens, UniProt Q06710); test: PAX8 transcriptional activity inhibition in RMG-I – RMG-I cells, luciferase, cherry-pick, dose response (AID 687027); format: functional, cell-based;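 also: luciferase reporter driven by Pax8 target thyroperoxidase promoter measured by SteadyGlo luminescence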
# Chain of Paired box protein Pax-8 (Q06710 whole entry): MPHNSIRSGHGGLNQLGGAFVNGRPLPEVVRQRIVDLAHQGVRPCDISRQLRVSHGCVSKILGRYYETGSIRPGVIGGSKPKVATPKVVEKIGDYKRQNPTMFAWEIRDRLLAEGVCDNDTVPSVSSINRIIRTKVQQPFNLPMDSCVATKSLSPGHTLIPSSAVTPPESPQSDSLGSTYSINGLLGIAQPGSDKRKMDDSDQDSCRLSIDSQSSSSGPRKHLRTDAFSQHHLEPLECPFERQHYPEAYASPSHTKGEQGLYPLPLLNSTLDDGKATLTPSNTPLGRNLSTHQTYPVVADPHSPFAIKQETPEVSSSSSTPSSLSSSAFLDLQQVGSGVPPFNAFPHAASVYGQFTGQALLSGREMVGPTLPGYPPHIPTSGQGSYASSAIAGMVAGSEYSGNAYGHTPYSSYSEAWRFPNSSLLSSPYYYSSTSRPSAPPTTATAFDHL
# [2] = A549 cell cytotoxicity, dose response, cytotoxicity control, plate reader, cherry-pick, antagonist series (AID 743412); format: functional, cell-based
# [3] = toxicity toward HepG2 liver cells – cell-based, plate reader, cherry-pick, antagonist series, cytotoxicity control, dose response (AID 743416); format: functional
# [4] = blockers of bursicon-stimulated LGR2 cAMP reporter – cell-based, HEK293, CRE-luciferase reporter, cherry pick, set 2, dose response (AID 743343); format: functional;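 also: transfected cells were stimulated with diluted bursicon conditioned medium after compound addition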
# [5] = blockade of melanocortin 4 receptor signaling – cell-based, plate reader, cherry pick, counter-screen for LGR2 antagonist project, dose response (AID 743444); format: functional;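 also: transfected HEK 293 cells stimulated with alpha-MSH peptide; potency of inhibitors of the alpha-MSH evoked signal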
# [6] = viability loss in HEK293 cells – cell-based, plate reader, cherry-picked samples, cytotoxicity control, dose response (AID 743446); format: functional
# [7] = molecular target: FAD-linked sulfhydryl oxidase ALR (Homo sapiens, UniProt P55789); test: ALR-catalysed DTT oxidation blockers – biochemical, H2O2 detection, luminescence, cherry-pick, dose response (AID 493248)
# Chain of FAD-linked sulfhydryl oxidase ALR (P55789 whole entry): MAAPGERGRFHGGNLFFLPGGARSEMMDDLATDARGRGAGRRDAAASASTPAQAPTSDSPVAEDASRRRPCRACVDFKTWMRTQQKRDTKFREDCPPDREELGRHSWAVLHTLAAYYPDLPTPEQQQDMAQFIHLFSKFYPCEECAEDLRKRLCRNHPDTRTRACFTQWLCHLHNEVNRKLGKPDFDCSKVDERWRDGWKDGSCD
# Mu-type opioid receptor = Mu-type opioid receptor (Homo sapiens, UniProt P35372); format: functional, cell-based;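 also: U2OS cells with beta-arrestin recruitment to OPRM1 by beta-gal complementation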
# Chain of Mu-type opioid receptor (P35372 whole entry): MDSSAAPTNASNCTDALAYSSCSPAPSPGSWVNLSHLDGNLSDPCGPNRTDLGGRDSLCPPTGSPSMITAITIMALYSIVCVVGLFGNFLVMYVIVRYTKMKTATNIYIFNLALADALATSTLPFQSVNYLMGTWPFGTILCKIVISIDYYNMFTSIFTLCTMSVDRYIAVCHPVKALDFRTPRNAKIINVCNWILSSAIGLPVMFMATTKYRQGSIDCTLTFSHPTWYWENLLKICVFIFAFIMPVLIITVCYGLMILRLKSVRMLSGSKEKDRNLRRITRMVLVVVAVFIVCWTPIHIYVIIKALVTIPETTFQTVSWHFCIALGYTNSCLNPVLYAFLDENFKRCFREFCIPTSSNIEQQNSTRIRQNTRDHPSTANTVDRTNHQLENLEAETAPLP
# [8] = molecular target: 5-hydroxytryptamine receptor 2A (Mus musculus, UniProt P35363); format: functional, cell-based;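 also: CHO-K1 cells with tagged receptor and beta-arrestin; agonist potency measured as compound-induced activation of the receptor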
# Chain of 5-hydroxytryptamine receptor 2A (P35363 whole entry): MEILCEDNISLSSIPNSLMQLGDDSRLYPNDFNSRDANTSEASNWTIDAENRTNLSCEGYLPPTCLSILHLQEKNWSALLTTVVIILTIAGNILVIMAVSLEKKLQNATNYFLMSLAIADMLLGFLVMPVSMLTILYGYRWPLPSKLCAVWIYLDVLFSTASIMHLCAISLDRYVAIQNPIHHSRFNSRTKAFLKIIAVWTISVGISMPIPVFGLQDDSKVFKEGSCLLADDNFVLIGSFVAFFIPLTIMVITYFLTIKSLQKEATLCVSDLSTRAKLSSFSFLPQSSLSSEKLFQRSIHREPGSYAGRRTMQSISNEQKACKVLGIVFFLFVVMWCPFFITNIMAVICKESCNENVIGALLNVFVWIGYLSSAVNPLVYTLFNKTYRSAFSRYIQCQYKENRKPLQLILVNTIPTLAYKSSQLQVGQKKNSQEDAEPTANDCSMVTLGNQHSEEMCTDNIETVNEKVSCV
# [9] = HGIII-sPLA2 enzyme inhibition potency – biochemical, QFRET, IC50, dose response (AID 743457);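 also: green fluorescence rise as the enzyme cleaves BODIPY PC-A2 in liposomes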
# [10] = blockers of HIV-1 ZM109 envelope-driven cell-cell fusion – HeLa effector, CEM target cells, luciferase, cherry-pick, dose response (AID 652058); format: functional, cell-based;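 also: luciferase signal from HIV-1 Env mediated cell-cell fusion of effector and target cells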
# [11] = HIV-1 AD8 envelope cell-cell fusion blockers – cherry-pick, dose response (AID 652062); format: functional, cell-based;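 also: luciferase signal from cell-cell fusion driven by HIV-1 clade B AD8 Env; potency is for inhibitors of fusion seen as a drop in luminescence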
# [12] = reduction of Shn3 3'UTR-driven luciferase in osteoblasts – cell-based, Clone20 osteoblasts, firefly luciferase, cherry-picked, dose response (AID 624132); format: functional;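 also: firefly luciferase luminescence from reporter carrying the Shn3 3'UTR in osteoblasts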
# [13] = loss of viability in HepG2 cells – cell-based, CellTiter-Glo, cherry-picked, cytotoxicity control for Shn3 inhibitor project, dose response (AID 624134); format: functional
# [14] = non-specific 3'UTR reporter inhibition in Clone20-Shn3RL – cell-based, Renilla luciferase, cherry-picked, counter-screen for Shn3 inhibitor project, dose response (AID 624133); format: functional
# [15] = OVCAR8 cell viability loss – plate reader, dry powder samples, PAX8 project, dose response (AID 743197); format: functional, cell-based; details: OVCAR-8
# [16] = test system: Streptococcus sp. 'group A'; test: Streptococcus pyogenes SK(-)GAS viability under kanamycin – luminescence, BacTiterGlo, confirmation, counter-screen for streptokinase expression inhibitor project, dose response (AID 1900); format: functional, organism-based
# Streptokinase A = molecular target: T2, Streptokinase A (Streptococcus pyogenes serotype M1, UniProt P10520); test: viability-normalized secreted streptokinase activity reduction – plasminogen activation absorbance, OD405, dose response (AID 1914); format: functional, Streptococcus pyogenes M1 GAS;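 also: secreted streptokinase activity via plasminogen activation per viability signal from cell pellet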
# T2 sequence (P10520 whole entry): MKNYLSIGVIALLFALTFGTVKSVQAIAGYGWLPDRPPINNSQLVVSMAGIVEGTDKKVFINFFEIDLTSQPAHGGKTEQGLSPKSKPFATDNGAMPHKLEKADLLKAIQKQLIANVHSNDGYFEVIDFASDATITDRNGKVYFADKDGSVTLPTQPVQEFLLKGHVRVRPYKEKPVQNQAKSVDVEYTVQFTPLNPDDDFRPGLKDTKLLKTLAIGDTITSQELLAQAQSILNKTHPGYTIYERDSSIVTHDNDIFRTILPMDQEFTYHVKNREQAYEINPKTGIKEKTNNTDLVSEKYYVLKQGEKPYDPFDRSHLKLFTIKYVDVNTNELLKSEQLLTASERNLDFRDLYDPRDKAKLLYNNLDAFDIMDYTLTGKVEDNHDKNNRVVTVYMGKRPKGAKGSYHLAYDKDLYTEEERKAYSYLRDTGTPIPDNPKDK
# [17] = microbe, parasite or virus in culture; format: functional; details: Mycobacterium tuberculosis
# Streptococcus = test: GAS UMAA2166 growth inhibition – luminescence, BacTiterGlo, counter-screen for streptokinase expression inhibitor project, dose response (AID 1915); format: functional, organism-based;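 also: potency for reduction of bacterial viability or growth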
# [18] = Luminescence Cell-Based Dose Retest to Confirm Inhibitors of Cancer Stem Cells. [Related pubchem assays (depositor defined):AID2717, AID2721]; format: functional; details: Homo sapiens
# [19] = molecular target: Heat shock protein HSP 90-alpha (Homo sapiens, UniProt P07900); format: functional, organism-based
compound,measurement,setting,value
Cn1nnnc1Sc1ncnc2scc(-c3ccsc3)c12,AC50,[1],7.95 µM (active)
same,AC50,Paired box protein Pax-8,2.56 µM (active)
same,AC50,[2],9.63 µM (active)
same,AC50,[3],10.9 µM (active)
same,AC50,[4],6.32 µM (active)
same,AC50,[5],8.27 µM (active)
same,AC50,[6],9.67 µM (active)
C=CCN1CCc2c(cc(O)c(O)c2Cl)C(c2ccccc2)C1 (configuration not stated),AC50,[7],4.74 µM (active)
same,EC50,Mu-type opioid receptor,92.4 µM (inactive)
same,EC50,[8],0.203 µM (active)
Cc1cc(N2CCCC2)ccc1NC(=O)COc1cccc(C(F)(F)F)c1,IC50,[9],> 122 µM (inactive)
Oc1cc2c(cc1CN1CCN(c3ncccn3)CC1)OCO2,EC50,Mu-type opioid receptor,92.5 µM (inactive)
same,EC50,[8],0.106 µM (active)
O=C(CN1CCN(Cc2ccc(Cl)cc2)C1=O)NCCCN1CCN(c2ccc(F)cc2)CC1,AC50,[10],36 µM (active)
same,AC50,[11],27.3 µM (active)
CCOC(=O)N1CCN(C(=O)c2ccc3c(c2)N(Cc2ccc(C)cc2)CCS3)CC1,AC50,[12],6 µM (active)
same,AC50,[13],> 70 µM (inactive)
same,AC50,[14],2.31 µM (active)
C[C@H]1CCCCO[C@@H](CN(C)Cc2ccncc2)[C@@H](C)CN([C@@H](C)CO)C(=O)c2cc(NC(=O)Nc3ccc(C(F)(F)F)cc3)ccc2O1,AC50,Paired box protein Pax-8,7.3 µM (active)
same,AC50,[15],> 70 µM (inactive)
CCCCN=C(S)NNC(=O)c1ccc(Br)o1,IC50,[9],> 122 µM (inactive)
Cc1cc2c(cc1C)CSC(c1c(O)ccc3ccccc13)SC2,EC50,[16],1.98 µM (active)
same,EC50,Streptokinase A,3.41 µM (active)
same,CC50,[17],23 µM (active)
same,EC50,Streptococcus,5.67 µM (active)
same,AC50,[18],2.24 µM (active)
same,AC50,[19],4.26 µM (active)
